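Method: 48-hour compound exposure of cells in 96-well plates, five concentrations, linear interpolation of endpoints. TGI: total growth inhibition.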
What was measured:
Experiment in all cases: NCI-60 cell line screen, 48 h
NCI-H23 lung = test system: NCI-H23 lung
CCRF-CEM leukemia = test system: CCRF-CEM leukemia
UACC-257 melanoma = test system: UACC-257 melanoma
OVCAR-5 ovarian = test system: OVCAR-5 ovarian
SR leukemia = test system: SR leukemia
SNB-75 CNS = test system: SNB-75 CNS
SK-MEL-2 melanoma = test system: SK-MEL-2 melanoma
HT29 colon = test system: HT29 colon
786-0 renal = test system: 786-0 renal
MOLT-4 leukemia = test system: MOLT-4 leukemia
NCI-H522 lung = test system: NCI-H522 lung
SF-539 CNS = test system: SF-539 CNS
COLO 205 colon = test system: COLO 205 colon
LOX IMVI melanoma = test system: LOX IMVI melanoma
OVCAR-3 ovarian = test system: OVCAR-3 ovarian
MDA-MB-231 breast = test system: MDA-MB-231 breast
T-47D breast = test system: T-47D breast
EKVX NSCLC = test system: EKVX NSCLC
MDA-N = test system: MDA-N
RXF 393 renal = test system: RXF 393 renal
SW-620 colon = test system: SW-620 colon
M14 melanoma = test system: M14 melanoma
BT-549 breast = test system: BT-549 breast
DU-145 prostate = test system: DU-145 prostate
CAKI-1 renal = test system: CAKI-1 renal
SK-MEL-5 melanoma = test system: SK-MEL-5 melanoma
HCT-15 colon = test system: HCT-15 colon
OVCAR-8 ovarian = test system: OVCAR-8 ovarian
OVCAR-4 ovarian = test system: OVCAR-4 ovarian
SN12C renal = test system: SN12C renal
A549 NSCLC = test system: A549 NSCLC
SK-OV-3 ovarian = test system: SK-OV-3 ovarian
HCC-2998 colon = test system: HCC-2998 colon
K-562 leukemia = test system: K-562 leukemia
IGROV1 ovarian = test system: IGROV1 ovarian
MALME-3M melanoma = test system: MALME-3M melanoma
UO-31 renal = test system: UO-31 renal
NCI/ADR-RES ovarian = test system: NCI/ADR-RES ovarian
MCF7 breast = test system: MCF7 breast
NCI-H460 lung = test system: NCI-H460 lung
HL-60(TB) leukemia = test system: HL-60(TB) leukemia
U251 CNS = test system: U251 CNS
SNB-19 CNS = test system: SNB-19 CNS
SF-295 CNS = test system: SF-295 CNS
HOP-92 NSCLC = test system: HOP-92 NSCLC
ACHN renal = test system: ACHN renal
TK-10 renal = test system: TK-10 renal
UACC-62 melanoma = test system: UACC-62 melanoma
PC-3 prostate = test system: PC-3 prostate
SK-MEL-28 melanoma = test system: SK-MEL-28 melanoma
KM12 colon = test system: KM12 colon
MDA-MB-435 = test system: MDA-MB-435
NCI-H226 lung = test system: NCI-H226 lung
HCT-116 colon = test system: HCT-116 colon

Measured: TGI

O=C(Nc1cc2c(=O)oc3ccccc3c2oc1=O)c1cccnc1
> 100 µM: all assays above
